Reference: ChEMBL document CHEMBL3588756, “Allobetulin derived seco-oleananedicarboxylates act as inhibitors of acetylcholinesterase” (Bioorg Med Chem Lett, 2015)

Tests used:
[1] = Solubility of the compound in aqueous buffer; assay type: physicochemical
Acetylcholinesterase [2] = target: T1, Acetylcholinesterase (Electrophorus electricus, UniProt O42275); experiment: Competitive Inhibition of Electrophorus electricus acetylcholinesterase using acetylthiocholine iodide as substrate preincubated for 20 mins followed by substrate addition measured for 30 mins by Ellman's method
Acetylcholinesterase [3] = target: T1, Acetylcholinesterase; experiment: Uncompetitive Inhibition of Electrophorus electricus acetylcholinesterase using acetylthiocholine iodide as substrate preincubated for 20 mins followed by substrate addition measured for 30 mins by Ellman's method
[4] = Cytotoxicity against mouse NIH/3T3 cells assessed as cell survival after 96 hrs by sulforhodamine-B assay; assay type: cell-based; conditions: NIH3T3, 96 h
Acetylcholinesterase [5] = target: T1, Acetylcholinesterase; experiment: Inhibition of Electrophorus electricus acetylcholinesterase using acetylthiocholine iodide as substrate preincubated for 20 mins followed by substrate addition measured for 30 mins by Ellman's method
Cholinesterase = Cholinesterase (Equus caballus, UniProt P81908); experiment: Inhibition of equine serum butyrylcholinesterase using butyrylthiocholineidioide as substrate preincubated for 20 mins followed by substrate addition measured for 30 mins by Ellman's method
Sequence of Cholinesterase (P81908 whole entry): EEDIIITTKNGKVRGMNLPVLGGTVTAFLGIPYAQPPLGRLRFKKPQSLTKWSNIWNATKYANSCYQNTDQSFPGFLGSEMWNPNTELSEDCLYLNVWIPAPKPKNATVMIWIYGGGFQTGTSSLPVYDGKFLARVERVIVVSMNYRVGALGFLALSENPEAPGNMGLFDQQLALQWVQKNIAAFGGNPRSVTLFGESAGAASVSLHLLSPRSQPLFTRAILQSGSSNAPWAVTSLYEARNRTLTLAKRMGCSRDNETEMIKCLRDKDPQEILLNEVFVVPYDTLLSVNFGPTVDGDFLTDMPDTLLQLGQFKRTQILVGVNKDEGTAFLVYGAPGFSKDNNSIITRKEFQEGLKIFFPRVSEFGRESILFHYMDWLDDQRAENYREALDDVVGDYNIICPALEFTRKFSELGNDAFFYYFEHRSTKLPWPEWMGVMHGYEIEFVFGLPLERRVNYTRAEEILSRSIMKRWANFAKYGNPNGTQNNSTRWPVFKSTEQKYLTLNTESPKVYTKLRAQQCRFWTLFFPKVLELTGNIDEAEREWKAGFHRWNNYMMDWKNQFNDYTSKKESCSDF

T1 sequence (O42275 whole entry): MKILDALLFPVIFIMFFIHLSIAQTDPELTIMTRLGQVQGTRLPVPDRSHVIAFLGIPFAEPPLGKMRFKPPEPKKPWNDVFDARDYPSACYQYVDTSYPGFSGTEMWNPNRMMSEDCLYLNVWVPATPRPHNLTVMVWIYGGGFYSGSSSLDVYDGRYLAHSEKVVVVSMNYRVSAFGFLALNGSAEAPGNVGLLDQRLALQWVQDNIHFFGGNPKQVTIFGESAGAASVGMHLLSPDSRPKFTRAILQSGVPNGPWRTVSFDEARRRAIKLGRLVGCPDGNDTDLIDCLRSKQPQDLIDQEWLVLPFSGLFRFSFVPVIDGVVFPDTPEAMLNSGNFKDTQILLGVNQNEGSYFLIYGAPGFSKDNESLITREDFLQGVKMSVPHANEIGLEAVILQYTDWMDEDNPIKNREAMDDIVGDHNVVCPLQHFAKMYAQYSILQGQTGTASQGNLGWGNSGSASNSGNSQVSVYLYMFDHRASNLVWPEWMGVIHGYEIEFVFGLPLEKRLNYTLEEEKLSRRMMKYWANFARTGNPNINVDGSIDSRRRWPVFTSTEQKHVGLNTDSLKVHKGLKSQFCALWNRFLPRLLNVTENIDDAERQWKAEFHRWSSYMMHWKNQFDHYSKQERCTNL

SMILES	Ki (Acetylcholinesterase [2]) [µM]	Ki (Acetylcholinesterase [3]) [µM]	EC50 [4] [µM]	also measured
C=CCCOC(=O)CC[C@]1(C)[C@H]2CC[C@@H]3[C@H]4[C@H]5OC[C@@]4(CCC5(C)C)CC[C@@]3(C)[C@]2(C)CC[C@H]1C(=C)C				solubility [1]: Insoluble
C#CCOC(=O)C[C@]1(C)[C@H]2CC[C@@H]3[C@H]4[C@H]5OC[C@@]4(CCC5(C)C)CC[C@@]3(C)[C@]2(C)CC[C@H]1C(C)(C)C(=O)OCC#C	10.5	4.63	7	
C#CCOC(=O)CC[C@]1(C)[C@H]2CC[C@@H]3[C@H]4[C@H]5OC[C@@]4(CCC5(C)C)CC[C@@]3(C)[C@]2(C)CC[C@H]1C(=C)C	3.33	2.48	> 30	
C=CCCOC(=O)C[C@]1(C)[C@H]2CC[C@@H]3[C@H]4[C@H]5OC[C@@]4(CCC5(C)C)CC[C@@]3(C)[C@]2(C)CC[C@H]1C(C)(C)C(=O)OCCC=C			> 30	
N[C@@H](CO)C(=O)O [SERINE]				IC50 (Acetylcholinesterase [5]): 0.015 µM; IC50 (Cholinesterase): 0.016 µM
C=C(C)[C@@H]1CC[C@]2(C)[C@H](CC[C@@H]3[C@H]4[C@H]5OC[C@@]4(CCC5(C)C)CC[C@]32C)[C@@]1(C)CCC(=O)O			> 30	Ki (Acetylcholinesterase [5]): 31.8 µM
